What was measured:
zebrafish embryos = assay: Zebrafish embryo gut formation (IFABP expression / gut reporter); type: in vivo; conditions: morpholino microinjection 50 μM; gut reporter fluorescence 4 dpf, IFABP in situ hybridization 3 dpf
Description: FIG. 5: YES1 is essential for tumorgenicity of β-catenin-active cells. (A) V5 immune complexes were isolated from HuTu80 or SW480 cells stably expressing WT or Y357F V5-epitope-tagged YAP1 or control V5-LacZ Immune complexes were analyzed by immunoblotting with a phosphotyrosine antibody. (B) HuTu80 or SW480 cells stably expressing V5-epitope-tagged WT YAP1 were treated for 6 hr with 0.5 or 2 μM of dasatinib. V5 immune complexes were analyzed by immunoblotting with a phosphotyrosine antibody. (C) Transgenic IFABP:RFP zebrafish were injected with 50 μM of YAP1- or YES1-specific morpholinos. Red fluorescence was assessed 4 dpf, or IFABP expression was assessed 3 dpf by using whole-mount in situ hybridization with an IFABP-specific probe. (D) Embryos were exposed to 2 μM of dasatinib at 2 dpf, and IFABP expression was assessed after 24 hr by using whole-mount in situ hybridization.
Zebrafish were maintained according to institutional animal care and use committee (IACUC-BIDMC) protocols. Validated morpholinos (MO) (Gene-Tools, PhiloMath, Oreg.) designed against the ATG site of YES1 (5′-CC […]-3′, SEQ ID NO: 1) (Jopling and Hertog, 2007) or YAP1 (5′-[…]-3′, SEQ ID NO: 2) (Skouloudaki et al., 2009) were injected into WT or gut reporter (Tg(fabp2:RFP)as200) zebrafish at the one-cell stage. […]

Colo205 = assay: Small-molecule inhibitor proliferation assay (crystal violet), Colo205; type: cell-based; conditions: Homo sapiens, COLO 205, 168 h, β-catenin pathway active, proliferation 7 d post treatment, read-out: IC50 Dasatinib
Description: (§1) (A) The indicated cancer cell lines were treated with various concentrations of dasatinib and proliferation was measured 7 days post treatment. (B) HCT116 or (C) HuTu80 cells stably expressing a dastinib resistant YES1 (T348I) or SRC (T341I) were treated as in (A). (D) Representative picture of HCT116 cells treated as in (B).
(§2) 6000 cell/well were plated in 24-well plates and the indicated doses of dasatinib (Selleck, Houston) or vehicle was added 24 hr later. Proliferation was measured after 7 d by crystal violet staining.

HCT116 = assay: Small-molecule inhibitor proliferation assay (crystal violet), HCT116; type: cell-based; conditions: Homo sapiens, HCT-116, 168 h, β-catenin pathway active, proliferation 7 d post treatment, read-out: IC50 Dasatinib
Description: as §1, §2

HT55 = assay: Small-molecule inhibitor proliferation assay (crystal violet), HT55; type: cell-based; conditions: Homo sapiens, 168 h, β-catenin pathway active, proliferation 7 d post treatment, read-out: IC50 Dasatinib
Description: as §1, §2

HuTu80 = assay: Small-molecule inhibitor proliferation assay (crystal violet), HuTu80; type: cell-based; conditions: Homo sapiens, 168 h, β-catenin pathway active, proliferation 7 d post treatment, read-out: IC50 Dasatinib
Description: as §1, §2

DLD1 = assay: Small-molecule inhibitor proliferation assay (crystal violet), DLD1; type: cell-based; conditions: Homo sapiens, DLD-1, 168 h, β-catenin pathway active, proliferation 7 d post treatment, read-out: IC50 Dasatinib
Description: as §1, §2

SW480 = assay: Small-molecule inhibitor proliferation assay (crystal violet), SW480; type: cell-based; conditions: Homo sapiens, 168 h, β-catenin pathway active, proliferation 7 d post treatment, read-out: IC50 Dasatinib
Description: as §1, §2

KM12 = assay: Small-molecule inhibitor proliferation assay (crystal violet), KM12; type: cell-based; conditions: Homo sapiens, 168 h, β-catenin pathway Non-active, proliferation 7 d post treatment, read-out: IC50 Dasatinib
Description: as §1, §2

RKO = assay: Small-molecule inhibitor proliferation assay (crystal violet), RKO; type: cell-based; conditions: Homo sapiens, 168 h, β-catenin pathway Non-active, proliferation 7 d post treatment, read-out: IC50 Dasatinib
Description: as §1, §2

APC null organoids = assay: Three-dimensional primary colon organoid culture, APC null; type: cell-based, mouse; conditions: 50 nM
Description: […] (B) Quantification of results in (A). Error bars represent SD from four replicates. Blank denotes wells where no organoids were added. (C) WT or AXIN1 mutant (Masterblind) zebrafish were treated with 2 μM of dasatinib from 6-8 dpf. Arrow indicates developing gut. (D) H&E staining of zebrafish in (C) width of epithelium is noted by bars. (E) The number of epithelial cells/section was measured in WT or AXIN1 mutant zebrafish treated with 2 μM of dasatinib or DMSO. Error bars represent the SD from 20 different sections from five treated fish. p value was calculated by using Student's t test.
(§3) Colons from Apc flox/flox; villin-CreER mice were dissected lengthwise and washed in cold PBS. 0.5-1 cm segment per dish was minced extensively on ice and embedded in a 3D collagen gel by using a double-dish culture system (Ootani et al., 2009). Tamoxifen (Sigma, 2 μM in ethanol) or vehicle (ethanol) was applied on the day of initial plating for 7 days to generate APC null or WT organoids.

WT organoids = assay: Three-dimensional primary colon organoid culture, WT; type: cell-based, mouse; conditions: WT organoids treated with dasatinib
Description: (A) Representative images of colon organoids derived from WT or APC null mice treated for 6 days with 100 nM of dasatinib. (B) Quantification of results in (A). Error bars represent SD from four replicates. Blank denotes wells where no organoids were added. (C) WT or AXIN1 mutant (Masterblind) zebrafish were treated with 2 μM of dasatinib from 6-8 dpf. Arrow indicates developing gut. (D) H&E staining of zebrafish in (C) width of epithelium is noted by bars. (E) The number of epithelial cells/section was measured in WT or AXIN1 mutant zebrafish treated with 2 μM of dasatinib or DMSO. Error bars represent the SD from 20 different sections from five treated fish. p value was calculated by using Student's t test.
as §3

Row | Compound | gut formation (zebrafish embryos) | IC50 (Colo205) [nM] | IC50 (HCT116) [nM] | IC50 (HT55) [nM] | IC50 (HuTu80) [nM] | IC50 (DLD1) [nM] | IC50 (SW480) [nM] | IC50 (KM12) [nM] | IC50 (RKO) [nM] | decrease in growth of APC null organoids (APC null organoids) [%] | growth inhibition of WT organoids (WT organoids) [%]
1 | 5′-AGCAACATTAACAACTCACTTTAGG-3′ (morpholino backbone, further chemistry not given here) [YAP1 morpholino] | dramatically inhibited |  |  |  |  |  |  |  |  |  | 
2 | Cc1nc(Nc2ncc(C(=O)Nc3c(C)cccc3Cl)s2)cc(N2CCN(CCO)CC2)n1 [dasatinib] |  | 80 | 68 | 70 | 70 | 125 | 50 | > 800 | > 800 | 70 | 5
3 | 5′-CC TCTTTACTCTTGACACAGCCCAT-3′ (CCTCTTTACTCTTGACACAGCCCAT; morpholino backbone, further chemistry not given here) [YES1 morpholino] | dramatically inhibited |  |  |  |  |  |  |  |  |  | 
